What all share (experiment): growth of human tumour cells (NCI), 48 h
Assay [1] relates to HCT-116 colon.
Assay [2] concerns UACC-62 melanoma.
Assay [3] has as its system SK-OV-3 ovarian.
Assay [4] deals with OVCAR-5 ovarian.
The test system of assay [5] is OVCAR-4 ovarian.
Assay [6] has as its system 786-0 renal.
In assay [7] the test system is OVCAR-8 ovarian.
For assay [8], the system named is NCI-H460 lung.
In assay [9] the test system is SN12C renal.
Assay [10] deals with LXFL 529 NSCLC.
Assay [11] concerns CAKI-1 renal.
Assay [12] deals with IGROV1 ovarian.
The subject of assay [13] is MOLT-4 leukemia.
Assay [14] relates to PC-3 prostate.
Assay [15] deals with MDA-N.
For assay [16], the system named is MDA-MB-231 breast.

Structures are written as SMILES.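 Values below derive from 48-hour exposures of cells grown in 96-well plates, with endpoints linearly interpolated between the two concentrations bracketing the appropriate inhibition level. TGI: total growth inhibition.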

For `COC(=O)[C@@]12OC[C@]34C([C@@H](O)C1O)[C@@]1(C)CC(=O)C(OC(=O)CC(C)C(F)(F)F)=C(C)C1C[C@H]3OC(=O)[C@H](O)[C@H]42` (stereo partly specified), the TGI in assay [1] was greater than 62.5 µM; in assay [2], 4.37 µM; in assay [3], greater than 62.5 µM; in [4], greater than 62.5 µM; in assay [5], greater than 62.5 µM; in [6], 38.5 µM. For the same compound, the TGI in assay [7] is greater than 62.5 µM; in assay [8], greater than 62.5 µM; in assay [9] it was 21.2 µM; in [10] it was greater than 62.5 µM; in assay [11] it was greater than 62.5 µM; in assay [12], 45.5 µM. In [13], the TGI came out at 19.4 µM.
`C1CSCCSCCCS[C@@H]2CCCCC2SC1` (stereo partly specified): the TGI in assay [1], in assay [2], in assay [3], in [4], in assay [5] and in assay [6] was greater than 100 µM each time. The TGI in [7], in assay [8], in assay [9], in assay [10], in assay [11] and in [12] was greater than 100 µM in each case.
Take `O=C1c2ccccc2N2OC3(N4CCOCC4)CCCC3C12c1ccccc1` (stereo unspecified): the TGI in assay [1], in assay [2], in assay [3], in assay [5], in [6] and in [7] was greater than 100 µM throughout. The TGI in assay [9], in assay [10], in assay [12] and in assay [13] was greater than 100 µM throughout.
Regarding `CC(C)(CN1CCCCC1)C(=O)/C=C/c1ccc(Br)cc1`, the TGI is 8.08 µM in assay [1]; greater than 22.9 µM in assay [2]; 8.18 µM in assay [3]; 11.8 µM in assay [4]; 19.3 µM in [5]; 4.72 µM in assay [6]. The TGI in [7] was 6.98 µM; in [8], greater than 20.4 µM; in assay [9], 7.66 µM; in [10], 3.52 µM; in assay [11] it was 3.71 µM; in assay [12], 6.48 µM. In assay [13], this compound registered a TGI of 6.87 µM.
Consider `C1CCC(N=C2N(C3CCCCC3)C(=NC3CCCCC3)N2C2CCCCC2)CC1`, for which the TGI in assay [1], in assay [2], in [3], in assay [4], in assay [5] and in assay [6] was greater than 100 µM in each case. The TGI in assay [7], in [8], in [9], in [10], in [12] and in assay [13] was greater than 100 µM throughout.
Regarding `Cc1ccc(N=N/C(=N/NC(=O)c2ccccc2)c2ccc(N(CCC#N)CCC#N)cc2C)cc1`, the TGI in assay [1], in assay [2], in assay [3], in [14], in assay [4] and in assay [5] was greater than 100 µM throughout. The TGI in assay [15], in [6], in assay [7], in [16], in assay [8] and in assay [9] was greater than 100 µM each time. Also, the TGI in assay [11], in assay [12] and in assay [13] was greater than 100 µM throughout.
`CCOC(=O)C1S(=O)(=O)OCCOS1(=O)=O`: the TGI in assay [1], in assay [2], in assay [3], in assay [5], in assay [6] and in assay [7] was greater than 100 µM in each case. Moreover, the TGI in assay [9], in assay [10], in assay [11], in [12] and in [13] was greater than 100 µM throughout.
Take `CCN1CCC(O)(c2ccc([N+](=O)[O-])cc2)C(C(=O)c2ccc([N+](=O)[O-])cc2)C1` (stereo unspecified): the TGI in [1] was 32.6 µM; in assay [2], 33 µM; in assay [3], greater than 100 µM; in assay [14], greater than 100 µM; in assay [4], greater than 100 µM; in assay [5], 83.9 µM. Also, the TGI is 39.1 µM in [15]; 29.9 µM in assay [6]; 81.9 µM in assay [7]; 41.9 µM in assay [16]; 48.7 µM in [8]; 38.8 µM in assay [9]. Moreover, the TGI is 41.2 µM in assay [11], 35.5 µM in assay [12] and 58 µM in [13].
For `Cc1nc2c(sc3nc4c(cc32)CCC4)c(=O)o1`, the TGI in [1] was greater than 100 µM; in assay [2], greater than 100 µM; in assay [3] it was greater than 100 µM; in assay [14], greater than 100 µM; in assay [4], greater than 100 µM; in [5] it was 89 µM. Moreover, the TGI in [15] was greater than 100 µM; in assay [6] it was greater than 100 µM; in assay [7], greater than 93.7 µM; in [16], greater than 100 µM; in [8], greater than 100 µM; in assay [9] it was greater than 100 µM. For the same compound, the TGI in assay [11] is greater than 100 µM; in assay [12] it was 59.1 µM; in assay [13], greater than 100 µM.
As to `CC(=O)c1ccc(Nc2c3c(nc4ccccc24)CCCC3)cc1`, the TGI is greater than 72 µM in [1]; greater than 56 µM in assay [2]; greater than 70.8 µM in assay [3]; greater than 100 µM in [14]; 97.9 µM in assay [4]; greater than 100 µM in [5]. Further, the TGI in assay [15] is 11.2 µM; in assay [6] it was greater than 100 µM; in [7], 70.9 µM; in [16], greater than 100 µM; in [8], greater than 66.8 µM; in [9] it was greater than 100 µM. In addition, the TGI in [11] was greater than 44 µM; in assay [12] it was 23.8 µM; in assay [13], 73.8 µM.
`COC(=O)/C=C/c1ccc(OP(=O)(O)O)c(OC)c1`: the TGI in assay [1], in assay [2], in [3], in [14], in [4] and in assay [5] was greater than 100 µM in each case. The TGI in assay [15], in assay [6], in assay [7], in assay [16], in assay [8] and in [9] was greater than 100 µM in each case. The TGI in [11], in assay [12] and in assay [13] was greater than 100 µM throughout.

The values above are taken from PubChem BioAssay (NCI).
